Assay results reported in patent US11247970B2, “Selective inhibition of gluconeogenic activity” (Dana-Farber Cancer Institute, Inc., priority 2017, dated 2022).

What was measured:
primary hepatocytes [1] = assay: Glucose production by primary hepatocytes (glucagon or Ad-PGC-1α); type: cell-based, mouse; set-up: glucagon- and PGC-1α-mediated glucose production: dose or concentration left out as unconfirmed
Protocol: (§1) For measurement of acetylation, gene expression and glucose production SR-18292 ([…]) was added to cells overnight and fresh compound was added the following day for additional 3 h before collecting the cells (for total of ˜18 h treatment). Where insulin and glucagon stimulation were performed, the medium was changed to starvation medium (DMEM, 0.2% BSA, 2 mM sodium pyruvate, and 1% penicillin/streptomycin) with fresh compound for the last 3 h and cells were stimulated with either 100 nM insulin or 200 nM glucagon for an extra 1.5 h. For glucose measurements following PGC-1α over expression cells were incubated for the last 3 h in glucose-free medium (phenol-red/glucose free DMEM, 0.2% BSA, 2 mM sodium pyruvate and 20 mM sodium lactate or 10 mM glycerol in case glycerol was used as substrate). For glucose measurements following glucagon stimulation cells were incubated for the last 4 h in the same glucose-free medium that also contained glucagon (200 nM). The glucose level in the medium was measured using a glucose assay kit from Eton Bioscience Inc. by adding […] of assay buffer to […] of medium followed by 15 min incubation at 37° C. Absorbance was measured at 490 nm.
PGC-1α activates hepatic gluconeogenic gene expression, and an increase in its acetylation status reduces expression of both Pck1 and G6pc genes (Rodgers et al., 2005; Yoon et al., 2001). […] Thus, a high-throughput screen with these 252 compounds at different doses was performed. Briefly, Hepatocytes were treated with forskolin for 1.5 hours to induce the expression of both Pck1 and G6pc genes, which mimics the fasting and PGC-1α-mediated gluconeogenic response. The dose response curves were used to calculate an inhibitory activity of the compounds by determining the difference in Ct values between compound treatment and forskolin control at each dose, and provided an estimated potency of the compounds in suppressing Pck1 and G6pc (FIGS. 4, 34). […] To specifically test the inhibitory activity of the remaining small molecule positive hits on PGC-1α-mediated glucose production, adenoviruses to ectopically express PGC-1α in primary hepatocytes were used. Similar to forskolin, PGC-1α overexpression induces gluconeogenic gene expression and promotes glucose release. Primary hepatocytes were treated with the chosen positive hit compounds that could suppress gluconeogenic gene expression, and the concentration of glucose released to the culture medium was measured.

[2] = tested on: Pck1 and G6pc gene expression; assay: Gluconeogenic gene and protein expression in primary hepatocytes (qPCR, western); type: cell-based, mouse
Protocol: as §1
siRNA oligos against mouse Ppargc1a were purchased from OriGene (SR420231). Hepatocytes were transfected with a 1:1:1:mixture of 3 unique 27mer siRNA duplexes ([…]) using Lipofectamin RNAiMax (Invitrogen) immediately upon seeding with plating medium. The following morning cells were washed with PBS and medium was changed to maintenance medium. In the afternoon, cells were transfected again and compound treatment started.
Total RNA was extracted from cells or pulverized liver using TRIzol reagent (Ambion, Life Technologies), followed by cDNA preparation from 2 μg of total RNA with a High-Capacity cDNA Reverse Transcription Kit (Applied Biosystems). cDNA products were quantified by real-time PCR using Power SYBR Green PCR Master Mix (Applied Biosystems) on a CFX384 Real-Time PCR System (Bio-Rad). To calculate IC50 from C-80 dose response, curves were fit to the hill equation in a similar manner used to calculate estimated AC50 from the high-throughput qPCR screen. However, unlike the curves from the qPCR high-throughput screen, values of relative repression were used rather than of delta-Ct.

primary hepatocytes [3] = assay: Cytotoxicity determination in primary hepatocytes (Toxilight, MTT, total protein); type: cell-based, mouse
Protocol: For cell viability determination using MTT, primary hepatocytes were seeded on a 96-well plate at 20,000 cells/well. The following day cells were treated at different doses, as indicated, for 18 h following similar protocol described above for drug treatment of primary hepatocytes. […] of MTT reagent (5 mg/ml) was then added to each well (n=4/dose) and cells were incubated for 1 h at 37° C. Medium was discarded and dye was extracted by adding […] DMSO to each well. For cytotoxicity determination using ToxiLight Non-destructive Cytotoxicity Bioassay, hepatocytes were seeded on a 6-well plate and treated with either SR-18292 ([…]) or cisplatin ([…]) for 18 h. […] of medium was collected and used to measure cellular toxicity by adding 100 of adenylate kinase detection reagent (AKDR) and incubating 5 min at RT before measuring luminescence.

Pck1 and G6pc promoters = assay: Chromatin immunoprecipitation on Pck1 and G6pc in primary hepatocytes; type: cell-based, mouse
Protocol: Primary hepatocytes were fixed in 1% formaldehyde for 10 minutes at room temperature. Crosslinking was quenched by adding glycine to a final concentration of 125 mM and rinsing twice with PBS. Cells were collected in PBS containing protease inhibitors followed by lysis in chromatin immunoprecipitation (ChIP) buffer (50 mM HEPES pH, 7.9; 140 mM NaCl; 1 mM EDTA; 1% Triton X-100; 0.1% NaDOC, 0.1% sodium dodecyl sulfate (SDS) and protease inhibitors). Chromatin was sheared by sonication with a Diagenode Biorupter for three cycles of 5 minutes (30 seconds on, 30 seconds off). Samples were clarified and chromatin immunoprecipitated overnight at 4° C. with the indicated antibody. Immune complexes were recovered with Protein A magnetic beads (Dynabeads; Novex, Life Technologies) preblocked with salmon sperm DNA (Invitrogen, Life Technologies). Following extensive washes, immunoprecipitated DNA was then isolated with a Chelex. Input DNA was prepared from 10% of respective chromatin prior to precipitation. Immunoprecipitated DNA and input DNA were analyzed by quantitative real-time PCR with primers specific for the indicated region. […] To further characterize the SR-18292-mediated inhibition of HNF4α transcriptional activity, chromatin immunoprecipitation (ChIP) assays were performed to examine the promoter occupancy of HNF4α on Pck1 and [MUT] promoters. Primary hepatocytes were treated with glucagon to induce gluconeogenic gene transcripts, and antibodies against HNF4α were used to IP chromatin fragments bound to this protein. […] Epigenetic changes accompany the response to glucagon in the fasted state, including an increase in activating H3K9 acetylation (H3K9Ac) and H3K4 trimethylation (H3K4Me3) of the Pck1 and [MUT] genes.

[4] = Serum biochemistry for liver toxicity; type: in vivo; conditions: HFD mice
Protocol: Serum samples were gathered from blood collected by cardiac puncture. Insulin was measured with Ultra Sensitive Mouse Insulin ELISA Kit (Crystal Chem, 90080). Kits used to measure alanine transaminase (EALT-100), aspartate transaminase (EASTR-100), lactate dehydrogenase (DLDH-100) were purchased from Bioassay Systems. Kits used to measure lactate (MAK 064), b-hydroxybutyrate (MAK 041), Triglycerides (TR0100) were purchased from Sigma. Kit used to measure cholesterol (C7510) was purchased from Pointe Scientific. Kit used to measure non-esterified fatty acids was purchased from Wako.
Serum enzymatic activities of alanine transaminase (ALT), aspartate aminotransferase (AST), lactate dehydrogenase (LDH) and bilirubin levels from mice fed high fat diet and treated with SR-18292. n=7.

**Q.** Which results are given for Cc1ccc(CN(CC(O)COc2cccc3[nH]ccc23)C(C)(C)C)cc1 (stereo not drawn) [SR-18292, 1-((1H-indol-4-yl)oxy)-3-(tert-butyl(4-methylbenzyl)amino)propan-2-ol]?
**A.** glucose release after short treatment (primary hepatocytes [1]; 3 hr treatment): no effect; glucose production from pyruvate and lactate or from glycerol as substrate (primary hepatocytes [1]; Ad-PGC-1α hepatocytes): decreases glucose production; glucagon- and PGC-1α-mediated glucose production (primary hepatocytes [1]; isolated hepatocytes): significantly reduced; gene expression after short treatment ([2]; 3 hr treatment): no effect; gluconeogenic gene and protein expression induced by ectopic PGC-1α ([2]; Ad-PGC-1α infected hepatocytes): significantly reduced; glucagon-stimulated Pck1 and G6pc gene expression ([2]; glucagon 200 nM): significantly reduced; PEPCK protein levels ([2]; hepatocytes infected with Ad-PGC-1α): reduced; suppression of Pck1 and G6pc after siRNA knock down of PGC-1α ([2]; siRNA against Ppargc1a): significantly impairs the ability of SR-18292 to suppress Pck1 and G6pc; hepatocyte toxicity by cell viability or total protein levels (primary hepatocytes [3]; 18 h treatment): did not cause hepatocyte toxicity; total protein levels (primary hepatocytes [3]; n=3): not affected; FoxO1 promoter occupancy (Pck1 and G6pc promoters): not altered; H3K9Ac and H3K4Me3 marks on the Pck1 gene (Pck1 and G6pc promoters): reduced H3K9Ac and H3K4Me3 marks; glucagon-induced Pck1 and G6pc promoter occupancy by HNF4α (Pck1 and G6pc promoters; glucagon 200 nM): significantly reduced; liver toxicity by serum ALT, AST, LDH and bilirubin [4]: not observed; ALT ([4]; serum, 45 mg/kg, n=7): 9.21 U/L; AST ([4]; serum, 45 mg/kg, n=7): 29.94 U/L; Bilirubin ([4]; serum, 45 mg/kg, n=7): 0.33 mg/dL; LDH ([4]; serum, 45 mg/kg, n=7): 64.44 IU/L
